# Measurements as given in a melting point compilation (Tetko et al.).
row,SMILES,melting point
1,Nc1nncc(-c2cccc(F)c2)n1,224 to 226 °C
2,O=S(=O)(Nc1ccc2cn[nH]c2c1)c1ccc2c(c1)CCC2,168 to 170 °C
3,Oc1ccc(-c2noc(-c3cccc(Br)c3)n2)cc1,222 to 224 °C
4,CC(C)(C)CNc1ccc(C(N)=O)c(Cl)c1,138 to 140 °C
5,NC(=S)C1CCOC1 (stereo unspecified),102 to 104 °C
6,NC(=O)c1cccnc1Sc1ccc(C(=O)O)cc1,257 to 259 °C
7,COc1ccc(C(=O)O)cc1C(C)C,164 to 166 °C
8,NC(Cc1ccc(O)cc1)c1nc2ccccc2[nH]1 (stereo unspecified),193 to 195 °C
9,CSc1cccc(Cl)c1C#N,114 to 116 °C
10,CCOC(=O)c1cnc2cc(Br)ccc2c1O,329 to 331 °C
11,Nc1cccc(N2C(=O)CNC2=O)c1,156 to 158 °C
12,Cc1nc2nc(C(F)(F)F)nn2c(C)c1CCC(=O)O,123 to 125 °C
13,O=C(Nc1nnc(-c2ccccn2)s1)OCC(F)(F)F,246 to 248 °C
14,O=c1cc(O)nc(S)n1-c1ccc(Cl)cc1,188 to 190 °C
15,O=C1C=CC=NC1=C(O)Nc1cnccn1,156 to 158 °C
16,O=C(CCl)N1CCN(S(=O)(=O)c2ccc([N+](=O)[O-])cc2)CC1,187 to 189 °C
17,O=C(CCl)Nc1cc(S(=O)(=O)N2CCOCC2)ccc1Cl,131 to 133 °C
18,Cc1cc(Br)cc2ccc(=O)[nH]c12,278 to 280 °C
19,COc1c([N+](=O)[O-])ccc(C=O)c1OC(F)F,95 to 97 °C
20,NC(=S)NCc1ccc(OC(F)(F)F)cc1,120 to 122 °C
21,NCCC(=O)Nc1ccc(C(N)=O)c(Cl)c1,264 to 266 °C
22,CCOC(=O)c1c(N)sc2c1CCCS2=O (stereo unspecified),189 to 191 °C
23,Nc1[nH]nc(-c2ccsc2)c1-c1ccc2c(c1)OCO2,79 to 81 °C
24,Cc1cc(F)ccc1N1CCCC(Br)C1=O (stereo unspecified),94 to 96 °C

row,SMILES,melting point
1,Nc1cc(Cl)ccc1C(=O)N1CCCCC1,103 to 105 °C
2,CC(=O)c1cc(F)c(N)c(F)c1,69 to 71 °C
3,O=S(=O)(Cl)c1sc(Cl)nc1Cl,57 to 59 °C
4,CSc1ccc(N)cc1F,49 to 51 °C
5,O=C1CC(c2ccc(Cl)cc2)N1 (stereo unspecified),90 to 92 °C
6,CSc1ccc(C=CC(=O)O)cc1,177 to 179 °C
7,NC(Cc1ccccn1)=NO,105 to 107 °C
8,COc1cc(/C=C(/C#N)C(=O)O)ccc1O,199 to 201 °C
9,NS(=O)(=O)c1cc(Br)ccc1Br,199 to 201 °C
10,CC(O)C(NS(=O)(=O)c1cccs1)C(=O)O (stereo unspecified),183 to 185 °C
11,N#Cc1cccc(Cc2cnc(N)s2)c1,143 to 145 °C
12,O=C(CC(F)(F)F)c1ccccc1,37 to 39 °C
13,Cc1cc(N)nn1-c1ccc(Cl)cc1,100 to 102 °C
14,COc1ccc(S(=O)(=O)N(C)C)cc1NC(=O)CCl,152 to 154 °C
15,O=C(O)COc1ccc(C(=O)c2ccccc2)cc1,152 to 156 °C
16,Oc1ccccc1OCc1ccc(F)cc1,55 to 57 °C
17,Nc1ccc2c(C(=O)O)c[nH]c2c1,193 to 195 °C
18,O=C1CC(c2ccccc2)=NN1c1ccccc1Br,183 to 185 °C
19,Cc1cnn(-c2ccc(S(N)(=O)=O)cc2F)c1,189 to 191 °C
20,CC(N)(C(N)=O)c1cccc(C(F)(F)F)c1 (stereo unspecified),84 to 86 °C
21,O=Cc1cc(O)cc(Br)c1O,145 to 147 °C
22,Cc1sc(N)nc1-c1ccc2c(c1)CCCO2,209 to 211 °C
23,O=C(O)c1ccc(N2CCC(O)CC2)cc1,259 to 261 °C
24,CC(C)(C)NS(=O)(=O)c1ccc(C(=O)O)cc1,181 to 185 °C

row,SMILES,melting point
1,N#CCc1nc(N)nc(N)n1,280 to 282 °C
2,O=Cc1sc(N2CCCCC2)nc1-c1cccs1,117 to 119 °C
3,O/N=C(/Cc1nc2ccccc2[nH]1)c1cccs1,207 to 209 °C
4,O=C1CCc2c(OCc3ccccc3)cccc21,71 to 73 °C
5,COc1cccc(CC(C(=O)O)n2nnnc2C)c1 (stereo unspecified),125 to 127 °C
6,O=C(O)c1cc(=O)[nH]c2ccc([N+](=O)[O-])cc12,375 to 377 °C
7,COc1ccc(S(N)(=O)=O)cc1N,145 to 147 °C
8,CS(=O)(=O)CCOc1ccc(Br)cc1,130 to 132 °C
9,NS(=O)(=O)c1ccc2c(c1)OCO2,155 to 157 °C
10,COc1cc(C(=O)O)ccc1OCC(C)C,145 to 147 °C
11,CCc1ccccc1N1CC(C(=O)O)CC1=O (stereo unspecified),99 to 101 °C
12,CC(Oc1cccc(C=O)c1)C(=O)O (stereo unspecified),65 to 67 °C
13,O=C(O)CCc1ccc(O)c(Cl)c1,84 to 86 °C
14,NS(=O)(=O)c1ccc(C(=O)O)c(F)c1,189 to 191 °C
15,CC(C)(C)c1nonc1N,90 to 92 °C
16,CC(C)(C)c1noc2ncc(C(=O)O)cc12,207 to 209 °C
17,Cc1ccc(C#N)c(OC2CCCC2)c1,66 to 68 °C
18,O=C(O)c1ccnc(C2CCCC2)n1,129 to 131 °C
19,NC(=O)NCc1ccccc1F,147 to 149 °C
20,Cc1ccccc1NC(=O)NN,141 to 143 °C
21,OCc1nc2ccccc2n1C(F)F,150 to 152 °C
22,O=C(O)C1CCCN1S(=O)(=O)c1ccc(Cl)s1 (stereo unspecified),44 to 46 °C
23,CC(=O)c1cccc(S(=O)(=O)N2CCC(C(=O)O)CC2)c1,122 to 124 °C
